Assay results as given in patent US7259161B2, “Compositions useful as inhibitors of JAK and other protein kinases” (Vertex Pharmaceuticals Incorporated, priority 2002, dated 2007).

Legend:
CDK-2/Cyclin A = CDK-2/Cyclin A (Homo sapiens, UniProt P24941); assay: CDK2 inhibition assay (coupled enzyme assay); type: biochemical; conditions: 100 μM ATP, 25 nM CDK-2/Cyclin A
Procedure: Compounds were screened for their ability to inhibit CDK-2/Cyclin A using a standard coupled enzyme assay (Fox et al (1998) Protein Sci 7, 2249). Reactions were carried out in 100 mM HEPES pH 7.5, 10 mM MgCl2, 25 mM NaCl, 1 mM DTT and 1.5% DMSO. Final substrate concentrations in the assay were 100 μM ATP (Sigma chemicals) and 100 μM peptide (American Peptide, Sunnyvale, Calif.). Assays were carried out at 30° C. and 25 nM CDK-2/Cyclin A. Final concentrations of the components of the coupled enzyme system were 2.5 mM phosphoenolpyruvate, 350 μM NADH, 30 μg/ml pyruvate kinase and 10 μg/ml lactate dehydrogenase.
An assay stock buffer solution was prepared containing all of the reagents listed above, with the exception of CDK-2/Cyclin A, DTT and the test compound of interest. 56 μl of the test reaction was placed in a 384 well plate followed by addition of 1 μl of 2 mM DMSO stock containing the test compound (final compound concentration 30 μM). The plate was preincubated for ˜10 minutes at 30° C. and the reaction initiated by addition of 10 μl of enzyme (final concentration 25 nM). Rates of reaction were obtained using a BioRad Ultramark plate reader (Hercules, Calif.) over a 5 minute read time at 30° C. Compounds showing >50% inhibition versus standard wells containing DMSO, but no compound, were titrated and IC50's determined using a similar protocol.

JNK3 = JNK3 (Homo sapiens, UniProt P53779); assay: JNK3 inhibition assay (spectrophotometric coupled-enzyme assay); type: biochemical; conditions: 10 μM ATP, 10 nM activated JNK3
JNK3, sequence (P53779 whole entry, species assumed): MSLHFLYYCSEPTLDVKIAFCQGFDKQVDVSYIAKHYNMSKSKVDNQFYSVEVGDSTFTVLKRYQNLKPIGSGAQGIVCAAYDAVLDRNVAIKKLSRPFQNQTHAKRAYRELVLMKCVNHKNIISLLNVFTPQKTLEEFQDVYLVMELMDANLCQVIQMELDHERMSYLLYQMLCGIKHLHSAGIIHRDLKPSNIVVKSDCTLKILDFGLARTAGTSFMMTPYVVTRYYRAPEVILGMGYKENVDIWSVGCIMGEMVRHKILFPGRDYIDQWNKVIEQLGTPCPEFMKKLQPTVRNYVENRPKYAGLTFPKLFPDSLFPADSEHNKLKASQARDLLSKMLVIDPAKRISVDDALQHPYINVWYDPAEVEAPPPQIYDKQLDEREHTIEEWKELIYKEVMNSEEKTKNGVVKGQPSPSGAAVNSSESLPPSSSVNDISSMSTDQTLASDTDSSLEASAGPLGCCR
Procedure: Compounds were assayed for the inhibition of JNK3 by a spectrophotometric coupled-enzyme assay. In this assay, a fixed concentration of activated JNK3 (10 nM) was incubated with various concentrations of a potential inhibitor dissolved in DMSO for 10 minutes at 30° C. in a buffer containing 0.1 M HEPES buffer, pH 7.5, containing 10 mM MgCl2, 2.5 mM phosphoenolpyruvate, 200 μM NADH, 150 μg/mL pyruvate kinase, 50 μg/mL lactate dehydrogenase, and 200 μM EGF receptor peptide. The EGF receptor peptide is a phosphoryl acceptor in the JNK3-catalyzed kinase reaction. The reaction was initiated by the addition of 10 μM ATP and the assay plate is inserted into the spectrophotometer's assay plate compartment that was maintained at 30° C. The decrease of absorbance at 340 nm was monitored as a function of time. The rate data as a function of inhibitor concentration was fitted to competitive inhibition kinetic model to determine the Ki.

Ki (CDK-2/Cyclin A) [nM]	Ki (JNK3) [nM]	SMILES
< 1000	< 1000	NS(=O)(=O)c1ccc(Nc2nccc(-c3ccc4c(c3)NC(=O)CO4)n2)cc1 [IVa-23]
< 1000	< 1000	CN1C(=O)COc2ccc(-c3ccnc(Nc4ccc(S(N)(=O)=O)cc4)n3)cc21 [IVa-24]
